According to patent US20080021034A1, “Compositions and methods for modulating gated ion channels” (PainCeptor Pharma Corporation, priority 2006, published 2008):

Tested on: proton-gated ion channels (ASIC)
Assay: Two-electrode voltage clamp in Xenopus laevis oocytes expressing gated ion channels (Xo)
Format: cell-based
Conditions: acidic solution (pH<7) activation
Procedure: Two-electrode voltage clamp electrophysiological assays in Xenopus laevis oocytes expressing gated ion channels are performed as follows:
Oocytes are surgically removed from adult Xenopus laevis and treated for 2 h at room temperature with 1 mg/ml type I collagenase (Sigma) in Barth's solution under mild agitation. Selected oocytes at stage IV-V are defolliculated manually before nuclear microinjection of 2.5-5 ng of a suitable expression vector, such as pCDNA3, comprising the nucleotide sequence encoding a gated ion channel subunit protein. In such an experiment, the oocytes express homomultimeric proton-gated ion channels on their surface. In an alternate experiment, one, two, three or more vectors comprising the coding sequences for distinct gated ion channel subunits are co-injected in the oocyte nuclei. In the latter case, oocytes express heteromultimeric proton-gated ion channels. For example, ASIC2a and/or ASIC3 subunits in pcDNA3 vector are co-injected at a 1:1 cDNA ratio. After 2-4 days of expression at 19° C. in Barth's solution containing […] gentamicin and 1.8 mM CaCl2, gated ion channels are activated by applying an acidic solution (pH<7) and currents are recorded in a two electrode voltage-clamp configuration, using an OC-725B amplifier (Warner Instruments). Currents are acquired and digitized at 500 Hz on an Apple Imac G3 computer with an A/D NB-MIO-16XL interface (National Instruments) and recorded traces are post-filtered at 100 Hz in Axograph (Axon Instruments) (Neher, E. and Sakmann, B. (1976) Nature 260:799-802). Once impaled with the microelectrodes, oocytes are continuously superfused at 10-12 ml/min with a modified Ringer's solution containing 97 mM NaCl, 2 mM KCl, 1.8 mM CaCl2, and 10 mM HEPES brought to pH 7.4 with NaOH (Control Ringer). Test Ringer solution is prepared by replacing HEPES with MES and adjusting the pH to the desired acidic value. Compounds of the present invention are prepared in both the Control and Test Ringer solutions and applied to oocytes at room temperature through a computer-controlled switching valve system. Osmolarity of all solutions is adjusted to 235 mOsm with choline chloride. Similarly, recordings can also be acquired in an automated multichannel oocytes system as the OpusExpress™ (Molecular Devices, Sunnyvale, USA).

CCOC(=O)N1NCC(c2ccccc2)=C2CCN(C)CC21 (stereo not shown) [Compound 3] was tested, and the “percent effect on acid-evoked current (two-electrode voltage clamp)” value (“percent effect on acid-evoked current” below) was under 20%.
For COC(=O)C1=C(C(=O)OC)C2CN(C(=O)OC(C)(C)C)CCC2=C(c2ccccc2)C1 (stereo not shown) [Compound 6], the “percent effect on acid-evoked current” value was under 20%.
CCOC(=O)C1=C(Nc2ccccc2)CCN(Cc2ccccc2)C1 [Compound 55] was tested, and the “Xo: percent binding data” value was under 20%.
For CN1CCC2=C(c3ccccc3)CCC(NC(=O)c3ccc(Cl)cc3)C2C1 (stereo not shown) [Compound 35], the “percent effect on acid-evoked current” value was under 20%.
For CN1CCC2=C(c3ccccc3)CCC(NC(=O)c3cccc(C=O)c3)C2C1 (stereo not shown) [Compound 32], the “percent effect on acid-evoked current” value was under 20%.
CN1CCC(O)(/C(=N\NC(=O)c2ccco2)c2ccccc2)CC1 [Compound 47] was tested, and the “percent effect on acid-evoked current” value was under 20%.
In the case of CN1CCC2=C(c3ccccc3)CC[C@@H](C(=O)Nc3ccccc3)C2C1 (stereo partly shown) [Compound 17], the “percent effect on acid-evoked current” value is reported as under 20%.
With CN1CC[C@@H]2/C(=N/O)c3ccccc3[C@@H]2C1 [Compound 41] the “percent effect on acid-evoked current” value was under 20%.
In the case of CN1CCC2=C(c3ccccc3)CC=C(C#N)[C@H]2C1 [Compound 7], the “percent effect on acid-evoked current” value is reported as under 20%.
In the case of CCOC(=O)C1CCC(c2ccccc2)=C2CCN(C)CC21 (stereo not shown) [Compound 10], the “percent effect on acid-evoked current” value is reported as under 20%.
In the case of CC(=O)N[C@@H]1CCC(c2ccccc2)=C2CCN(C)C[C@@H]21 [Compound 24], the “percent effect on acid-evoked current” value is reported as under 20%.
CC(C)(C)OC(=O)N1CCC2=C(c3ccccc3)CC[C@@H]([N+](=O)[O-])[C@H]2C1 [Compound 31] was tested, and the “percent effect on acid-evoked current” value was under 20%.
In the case of CN1CCC2=C(c3ccccc3)CC[C@@H](C(=O)N(C)C)C2C1 (stereo partly shown) [Compound 16], the “percent effect on acid-evoked current” value is reported as under 20%.
For CN1CCC2=C(c3ccccc3)CC[C@@H](C(=O)Nc3ccccn3)C2C1 (stereo partly shown) [Compound 18], the “percent effect on acid-evoked current” value was under 20%.
In the case of CC(C)(C)OC(=O)N1CCC2=C(c3ccccc3)CC=C(C#N)C2C1 (stereo not shown) [Compound 5], the “percent effect on acid-evoked current” value is reported as under 20%.
CN1CCC2=C(c3ccccc3)CC[C@@H]([N+](=O)[O-])[C@H]2C1 [Compound 23] was tested, and the “percent effect on acid-evoked current” value was under 20%.
For CN1CCC2=C(c3ccccc3)CC[C@@H](NC(=O)c3ccc(O)cc3)[C@H]2C1 [Compound 29], the “Xo: percent binding data” value was under 20%.
With CN1CCC2=C(c3ccccc3)CCC(NC(=O)c3ccc(C=O)cc3)C2C1 (stereo not shown) [Compound 33] the “percent effect on acid-evoked current” value was under 20%.
For C#CCNC(=O)[C@@H]1CCC(c2ccccc2)=C2CCN(C)CC21 (stereo partly shown) [Compound 15], the “percent effect on acid-evoked current” value was under 20%.
CN1CCC2=C(c3ccccc3)CC[C@@H](C(=O)NCCO)C2C1 (stereo partly shown) [Compound 20] was tested, and the “percent effect on acid-evoked current” value was under 20%.
For CN1CCC(O)(/C(=N\NC(=O)c2ccccc2[N+](=O)[O-])c2ccccc2)CC1 [Compound 50], the “percent effect on acid-evoked current” value was under 20%.
With CN1CC[C@@H]2/C(=N/Nc3ccc([N+](=O)[O-])cc3[N+](=O)[O-])c3ccccc3[C@@H]2C1 [Compound 39] the “Xo: percent binding data” value was under 20%.
CN1CCC2=C(c3ccccc3)CCC(NC(=O)c3ccc(/C=N/O)cc3)[C@H]2C1 (stereo partly shown) [Compound 28] was tested, and the “percent effect on acid-evoked current” value was under 20%.
With CN1CC[C@@H]2C(=O)c3ccccc3[C@@H]2C1 [Compound 40] the “percent effect on acid-evoked current” value was under 20%.
With CCOC(=O)c1cccnc1N/N=C(/c1ccccc1)C1(O)CCN(C)CC1 [Compound 51] the “percent effect on acid-evoked current” value was under 20%.
CN1CCC2=C(c3ccccc3)CCC(C(=O)Nc3cccc(Cl)c3)C2C1 (stereo not shown) [Compound 12] was tested, and the “percent effect on acid-evoked current” value was under 20%.
With CCOC(=O)N1CC(c2ccccc2)=C2CCN(C(=O)OC(C)(C)C)C[C@@H]2N1C(=O)OCC [Compound 2] the “percent effect on acid-evoked current” value was under 20%.
With CN1CCC(O)(/C(=N\NC(=O)c2ccccc2N)c2ccccc2)CC1 [Compound 37] the “percent effect on acid-evoked current” value was under 20%.
In the case of CN1CCC2=C(c3ccccc3)CC[C@@H](C(=O)Nc3ccccc3Cl)C2C1 (stereo partly shown) [Compound 14], the “percent effect on acid-evoked current” value is reported as under 20%.
With CN1CCC2=C(c3ccccc3)CCC(NC(=O)c3ccc(/C=N/O)cc3)C2C1 (stereo not shown) [Compound 36] the “percent effect on acid-evoked current” value was under 20%.
In the case of CN1CCC2=C(c3ccccc3)CC[C@@H](NC(=O)c3ccccc3)[C@H]2C1 [Compound 25], the “percent effect on acid-evoked current” value is reported as under 20%.
CN1CCC2=C(c3ccccc3)CCC(C(=O)Nc3ccc(Cl)cc3)C2C1 (stereo not shown) [Compound 13] was tested, and the “percent effect on acid-evoked current” value was under 20%.
In the case of CN1CCC2=C(c3ccccc3)CCC(C(=O)OCCO)C2C1 (stereo not shown) [Compound 11], the “percent effect on acid-evoked current” value is reported as under 20%.
With CN1CC=C(/C(=N\Nc2ccc([N+](=O)[O-])cc2[N+](=O)[O-])c2ccccc2)CC1 [Compound 44] the “Xo: percent binding data” value was under 20%.
For CN1CCC2=C(c3ccccc3)Cn3c(=O)n(-c4ccccc4)c(=O)n3C2C1 (stereo not shown) [Compound 57], the “percent effect on acid-evoked current” value was under 20%.
For CN1CCC(O)(C(=NNC(N)=O)c2ccccc2)CC1 [Compound 52], the “percent effect on acid-evoked current” value was under 20%.
With N#CC1=CCC(c2ccccc2)=C2CCNCC12 (stereo not shown) [Compound 4] the “percent effect on acid-evoked current” value was under 20%.
For CN1CCC2=C(c3ccccc3)CCC(NC(=O)c3ccccc3O)C2C1 (stereo not shown) [Compound 34], the “percent effect on acid-evoked current” value was under 20%.
With CCOC(=O)N1CC(c2ccccc2)=C2CCN(C)CC2N1C(=O)OCC (stereo not shown) [Compound 1] the “percent effect on acid-evoked current” value was under 20%.
In the case of COC(=O)C1=CCC(c2ccccc2)=C2CCN(C(=O)OC(C)(C)C)CC12 (stereo not shown) [Compound 8], the “percent effect on acid-evoked current” value is reported as under 20%.
CN1CCC2=C(c3ccccc3)CC[C@@H](C(=O)NCc3ccccc3)[C@H]2C1 [Compound 21] was tested, and the “percent effect on acid-evoked current” value was under 20%.
For CN1CCC(O)(/C(=N\Nc2ccccc2)c2ccccc2)CC1 [Compound 46], the “percent effect on acid-evoked current” value was under 20%.
In the case of CN1CCC(O)(/C(=N/N)c2ccccc2)CC1 [Compound 39a], the “percent effect on acid-evoked current” value is reported as under 20%.
In the case of CN1CCC2=C(c3ccccc3)CCC(NC(=O)c3cccc(O)c3)C2C1 (stereo not shown) [Compound 30], the “percent effect on acid-evoked current” value is reported as under 20%.
For CN1CCC2=C(c3ccccc3)CCC(C(=O)O)C2C1 (stereo not shown) [Compound 9], the “percent effect on acid-evoked current” value was under 20%.
CN1CCC(O)(/C(=N\Nc2ccccn2)c2ccccc2)CC1 [Compound 48] was tested, and the “percent effect on acid-evoked current” value was under 20%.
With CN1CCC(O)(/C(=N\NC(=O)c2ccc(O)cc2O)c2ccccc2)CC1 [Compound 45] the “percent effect on acid-evoked current” value was under 20%.
With CN1CC[C@@H]2/C(=N\NC(N)=O)c3ccccc3[C@@H]2C1 [Compound 43] the “percent effect on acid-evoked current” value was under 20%.
CN1CCC2=C(c3ccccc3)CC[C@@H](C(=O)N3CCNCC3)[C@H]2C1 [Compound 22] was tested, and the “percent effect on acid-evoked current” value was under 20%.
CN1CCC(O)(/C(=N\Nc2ccc([N+](=O)[O-])cc2[N+](=O)[O-])c2ccccc2)CC1 [Compound 42] was tested, and the “Xo: percent binding data” value was under 20%.
CN1CCC2=C(c3ccccc3)CCC(N)C2C1 (stereo not shown) [Compound 26] was tested, and the “percent effect on acid-evoked current” value was under 20%.
CN1CCC2=C(c3ccccc3)CCC(NC(=O)c3cccc(/C=N/O)c3)[C@H]2C1 (stereo partly shown) [Compound 27] was tested, and the “percent effect on acid-evoked current” value was under 20%.
CN1CCC2=C(c3ccccc3)CC[C@@H](C(=O)Nc3cccnc3)C2C1 (stereo partly shown) [Compound 19] was tested, and the “percent effect on acid-evoked current” value was under 20%.
CN1CCC(O)(/C(=N\NC(=O)c2cccc(O)c2)c2ccccc2)CC1 [Compound 54] was tested, and the “percent effect on acid-evoked current” value was under 20%.
For CN1CCC2=C(c3ccccc3)Cn3c(=O)n(C)c(=O)n3C2C1 (stereo not shown) [Compound 56], the “percent effect on acid-evoked current” value was under 20%.
